Drawing on PubChem BioAssay (NCI), this text covers GI50 and TGI for eight compounds.

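Briefly, cells in 96-well plates were exposed to five compound concentrations for 48 h, and endpoints were estimated by linear interpolation. GI50 marks 50% less growth. TGI is the concentration that stops growth completely.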 Where only a bound is given, the exact number is not on record here.

Some test systems named below: HS 578T breast; MALME-3M melanoma; NCI-H226 lung; NCI-H23 lung; NCI-H460 lung; OVCAR-3 ovarian; OVCAR-5 ovarian; SF-539 CNS; SK-MEL-5 melanoma; SW-620 colon.
Holding throughout (assay): growth of human tumour cells (NCI), 48 h

With `C[C@]12CC[C@@H]3c4ccc(O)cc4CC[C@H]3[C@@H]1CC[C@@H]2NS(=O)(=O)c1cccc(C(F)(F)F)c1`, the GI50 in the experiment with HS 578T breast is 3240 nM; with MALME-3M melanoma, 2.83 µM; with NCI-H226 lung it was 3.88 µM; in the experiment with NCI-H23 lung, 3760 nM; in the experiment with NCI-H460 lung, 2600 nM; with OVCAR-3 ovarian, 2950 nM. Besides, the GI50 in the experiment on OVCAR-5 ovarian is 4.54 µM; in the experiment with SF-539 CNS, 4210 nM; in the experiment on SK-MEL-5 melanoma, 1790 nM; with SW-620 colon, 3720 nM. The TGI with HS 578T breast was determined as 15.6 µM; with MALME-3M melanoma, 8.65 µM; in the experiment on NCI-H226 lung, 17.2 µM; with NCI-H23 lung, 15.8 µM; in the experiment with NCI-H460 lung it was 6.79 µM; in the experiment with OVCAR-3 ovarian, 8.6 µM. Moreover, the TGI in the experiment with OVCAR-5 ovarian was 17.4 µM; in the experiment on SF-539 CNS, 16.2 µM; with SK-MEL-5 melanoma it was 3.29 µM; in the experiment on SW-620 colon, 15.6 µM.

Regarding `C=C1CC2(C[C@@H](c3ccccc3)O[C@@H](c3ccccc3)C2)OC1=O` (stereo partly specified), the TGI in the experiment on HS 578T breast turned out to be 9.44 µM; in the experiment with MALME-3M melanoma, 4.28 µM; with NCI-H226 lung, 32 µM; in the experiment with NCI-H23 lung, 7.72 µM; in the experiment on NCI-H460 lung, 23.3 µM; in the experiment with OVCAR-3 ovarian, 6.07 µM. Besides, the TGI in the experiment with OVCAR-5 ovarian stood at 26.9 µM; in the experiment with SF-539 CNS it was 4.94 µM; in the experiment with SK-MEL-5 melanoma, 8.83 µM; in the experiment on SW-620 colon, 3.95 µM.

With `C=C(C)[C@@H]1CC[C@]2(C(=O)NCCNCCNCCN)CC[C@]3(C)[C@H](CC[C@@H]4[C@@]5(C)CC[C@H](O)C(C)(C)[C@@H]5CC[C@]43C)[C@@H]12`, the GI50 in the experiment with HS 578T breast was 20100 nM; in the experiment on MALME-3M melanoma, 14.6 µM; in the experiment on NCI-H226 lung it was 15.5 µM; in the experiment on NCI-H23 lung, 14700 nM; in the experiment on NCI-H460 lung, 14700 nM; in the experiment with OVCAR-3 ovarian it was 12200 nM. Besides, the GI50 in the experiment on OVCAR-5 ovarian was 18.6 µM; in the experiment on SF-539 CNS, 11100 nM; in the experiment on SK-MEL-5 melanoma, 11100 nM; in the experiment with SW-620 colon, 14700 nM. Also, the TGI in the experiment on HS 578T breast was 66.7 µM; in the experiment with MALME-3M melanoma, 28.4 µM; in the experiment on NCI-H226 lung, 40.4 µM; in the experiment on NCI-H23 lung it was 32 µM; in the experiment on NCI-H460 lung, 32 µM; in the experiment on OVCAR-3 ovarian, 25.7 µM. For the same compound, the TGI was found to be 35 µM in the experiment with OVCAR-5 ovarian, 23.7 µM in the experiment on SF-539 CNS, 23.4 µM in the experiment on SK-MEL-5 melanoma and 34.4 µM with SW-620 colon.

Consider `CN(c1ccc(NC(=O)Nc2ccc(OC(F)(F)F)cc2)cc1)c1ccnc(Nc2cccc(S(N)(=O)=O)c2)n1`, for which the GI50 with HS 578T breast is 4140 nM; in the experiment on MALME-3M melanoma, 3.84 µM; in the experiment on NCI-H226 lung, 3.28 µM; in the experiment with NCI-H23 lung, 2150 nM; with NCI-H460 lung, 428 nM; in the experiment on OVCAR-3 ovarian, 3050 nM. The GI50 with OVCAR-5 ovarian was 5.47 µM; in the experiment on SF-539 CNS, 591 nM; in the experiment on SK-MEL-5 melanoma, 3960 nM; in the experiment with SW-620 colon it was 2930 nM. The TGI in the experiment on HS 578T breast was found to be 17 µM; in the experiment with MALME-3M melanoma it was 8.34 µM; in the experiment on NCI-H226 lung, 9.51 µM; with NCI-H23 lung, 6.25 µM; in the experiment on NCI-H460 lung, 4.51 µM; in the experiment on OVCAR-3 ovarian, 6.69 µM. Moreover, the TGI was determined as 13.7 µM in the experiment on OVCAR-5 ovarian, 5.47 µM in the experiment with SF-539 CNS, 7.56 µM with SK-MEL-5 melanoma and 6.62 µM in the experiment with SW-620 colon.

Consider `O=C(CCCCCCSc1nc(-c2ccccc2)cc(-c2ccccc2)n1)NO`, for which the GI50 in the experiment with HS 578T breast is 1560 nM; in the experiment with MALME-3M melanoma it was 1.02 µM; in the experiment on NCI-H226 lung it was 2.94 µM; with NCI-H23 lung it was 1970 nM; with NCI-H460 lung, 1400 nM; with OVCAR-3 ovarian it was 2150 nM. Moreover, the GI50 in the experiment with OVCAR-5 ovarian was 1.84 µM; with SF-539 CNS, 2430 nM; in the experiment on SK-MEL-5 melanoma, 1460 nM; with SW-620 colon, 1490 nM. The TGI amounted to 14.5 µM with HS 578T breast; 8.31 µM in the experiment with MALME-3M melanoma; 13.2 µM in the experiment on NCI-H226 lung; 5.55 µM in the experiment on NCI-H23 lung; 11.7 µM in the experiment with NCI-H460 lung; 9.26 µM in the experiment with OVCAR-3 ovarian. For the same compound, the TGI in the experiment on OVCAR-5 ovarian was determined as 7.92 µM; in the experiment with SF-539 CNS, 10 µM; in the experiment on SK-MEL-5 melanoma, 3.48 µM; in the experiment with SW-620 colon it was 12.8 µM.

In the case of `NC1=C(Br)C(=O)c2ncccc2C1=O`, the GI50 with HS 578T breast was 370 nM. The TGI in the experiment on HS 578T breast was determined as 2.84 µM; with MALME-3M melanoma, 1.4 µM; in the experiment with NCI-H226 lung, 3.59 µM; with NCI-H23 lung, 0.668 µM; with NCI-H460 lung it was 1.16 µM; in the experiment on OVCAR-3 ovarian it was 2.33 µM. Further, the TGI in the experiment with OVCAR-5 ovarian turned out to be 3.49 µM; in the experiment on SF-539 CNS, 0.629 µM; in the experiment on SK-MEL-5 melanoma, 1.46 µM; in the experiment on SW-620 colon, 1.84 µM.

Turning to `COc1ccc(C(=O)/C=C/c2c(C(F)(F)F)nc3sccn23)cc1OC`, the GI50 was 2510 nM with HS 578T breast; 5.92 µM with MALME-3M melanoma; 6.95 µM in the experiment with NCI-H226 lung; 2780 nM with NCI-H23 lung; 1940 nM in the experiment on NCI-H460 lung; 2120 nM in the experiment on OVCAR-3 ovarian. Moreover, the GI50 is 4.18 µM in the experiment with OVCAR-5 ovarian, 2360 nM in the experiment on SF-539 CNS, 4200 nM in the experiment on SK-MEL-5 melanoma and 1490 nM in the experiment with SW-620 colon. For the same compound, the TGI was 16.8 µM in the experiment with HS 578T breast; greater than 100 µM in the experiment on MALME-3M melanoma; greater than 100 µM in the experiment on NCI-H226 lung; 27.9 µM in the experiment on NCI-H23 lung; 6.65 µM in the experiment with NCI-H460 lung; 6.14 µM in the experiment on OVCAR-3 ovarian. Moreover, the TGI is 39.1 µM with OVCAR-5 ovarian, 8.52 µM with SF-539 CNS, greater than 100 µM in the experiment on SK-MEL-5 melanoma and greater than 100 µM in the experiment on SW-620 colon.

Consider `C[C@H]1[C@H](C)CC[C@]2(C(=O)N3CCN(C)CC3)CC[C@]3(C)C(=CC[C@@H]4[C@@]5(C)C/C(=C/c6cccnc6)C(=O)C(C)(C)[C@@H]5CC[C@]43C)[C@H]12`, for which the GI50 in the experiment on HS 578T breast was 1430 nM; in the experiment with MALME-3M melanoma it was 1.08 µM; in the experiment with NCI-H226 lung it was 1.81 µM; in the experiment with NCI-H23 lung it was 1570 nM; in the experiment on NCI-H460 lung it was 891 nM; in the experiment on OVCAR-3 ovarian, 969 nM. Further, the GI50 in the experiment with OVCAR-5 ovarian is 1.55 µM; in the experiment on SF-539 CNS, 1440 nM; with SK-MEL-5 melanoma, 1140 nM; in the experiment on SW-620 colon, 924 nM. Besides, the TGI in the experiment with HS 578T breast came to 5.4 µM; with MALME-3M melanoma, 2.45 µM; in the experiment with NCI-H226 lung it was 3.77 µM; with NCI-H23 lung, 3.19 µM; in the experiment with NCI-H460 lung, 2.45 µM; in the experiment with OVCAR-3 ovarian, 2.36 µM. The TGI in the experiment on OVCAR-5 ovarian was 2.91 µM; in the experiment on SF-539 CNS it was 2.78 µM; with SK-MEL-5 melanoma, 2.54 µM; with SW-620 colon it was 2.51 µM.
